Results from patent publication US10287276B2, “Heteroaryl-1,2,4-triazole and heteroaryl-tetrazole compounds for controlling ectoparasites” (Elanco Tiergesundheit AG, priority 2016, dated 2019).

Experiments:
[1] = system: Ctenocephalides Felis (Cat Flea); experiment: Activity in vitro against Ctenocephalides felis (cat flea), Assay B; settings: Ctenocephalides felis; at 10 ppm in bovine blood; % mortality at 48 hours post infestation; read-out: efficacy (EC50)
Protocol: Activity In Vitro Against Ctenocephalides Felis (Cat Flea)—Assay B
Test compounds are added to organic bovine blood contained in an artificial feeding container. Compounds with known insecticidal activity are included to serve as positive controls. Newly emerged unfed adult fleas from a laboratory colony are aspirated into each vial. The test cages are maintained using the artificial feeding apparatus to allow ingestion of compound. Fleas are evaluated for % mortality at 48 hours post infestation. Fleas showing normal movement and/or jumping ability are considered viable and those showing no movement are scored as dead.

[2] = system: Ctenocephalides Felis (Cat Flea); experiment: Activity in vitro against Ctenocephalides felis (cat flea), Assay A; settings: Ctenocephalides felis; at 100 ppm; adult fleas fed on treated blood for 24 h; dead fleas counted; read-out: efficacy (EC80)
Protocol: Activity In Vitro Against Ctenocephalides Felis (Cat Flea)—Assay A
A mixed adult population of fleas is placed in a suitably formatted 96-well plate allowing fleas to access and feed on treated blood via an artificial feeding system. Fleas are fed on treated blood for 24 h, after which the compound effect is recorded. Insecticidal activity is determined on the basis of the number of dead fleas recovered from the feeding system.

[3] = system: Lucilla Cuprina (Australian sheep blowfly); experiment: Activity in vitro against Lucilla cuprina (Australian sheep blowfly), Assay A; settings: Lucilia cuprina, 96 h; at 32 ppm; eggs on agar-based medium, 4 days at 28° C. and 60% relative humidity; read-out: efficacy (EC80)
Protocol: Activity in vitro against Lucilla Cuprina (Australian sheep blowfly)—Assay A
Freshly laid blowfly eggs are used to seed a suitably formatted microplate containing the test substances to be evaluated for antiparasitic activity. Each compound is tested by serial dilution in order to determine its minimum efficacy dose. The test compounds are embedded in an agar-based nutritive medium allowing the full development of the eggs into 3rd instar larvae. The incubation lasts for 4 days at 28° C. and 60% relative humidity. Egg-hatching and ensuing larval development are also recorded to identify a possible growth-regulating activity.

[4] = system: Engorged Female Rhipicephalus microplus (Cattle Tick); experiment: Activity in vitro against engorged female Rhipicephalus microplus (cattle tick), contact test; settings: 672 h, organophosphorous-resistant Ultimo strain, evaluation 28 days later on mortality, oviposition and hatched larvae, read-out: efficacy (EC80)
Protocol: Activity In Vitro Against Engorged Female Rhipicephalus microplus (Cattle Tick)
A contact test is performed by pre-coating 6-well microplates with serial dilution of the compound to be evaluated for anti-parasitic activity. 10 engorged female ticks of the organophosphorous-resistant Ultimo strain are distributed to each well in triplicates. Plates are then incubated at 28° C. and 80% relative humidity. Evaluation takes place 28 days later based on mortality, oviposition and hatched larvae. […] Activity In Vivo Against Rhipicephalus sanguineus Nymphs on Mongolian Gerbils (Meriones unguiculatus) (Spray Application)

[5] = system: Rhipicephalus sanguineus Nymphs; experiment: Activity in vivo against Rhipicephalus sanguineus nymphs on Mongolian gerbils; settings: topical, 0 h, pour on application day 0, tick number reduction vs placebo, Abbott's formula, read-out: efficacy (EC90)
Protocol: On day 0, gerbils are treated with the test compound at a given dose by pour on application. On day +1 (+2), the animals are infested with nymphs of R. sanguineus. Ticks are left on the animals until full repletion. Seven days after infestation nymphs dropped off fully engorged are collected and counted. They are kept until molting to also evaluate growth regulating activity of the test compound. Efficacy in killing (and growth regulating) is expressed as a tick number (and molted tick number) reduction in comparison with a placebo treated group, using the Abbott's formula:
n=number of live ticks. T=treated group. Co=control/placebo group.

[6] = system: Rhipicephalus sanguineus (Dog Tick); experiment: Activity in vitro against Rhipicephalus sanguineus (dog tick), Assay A, contact test; settings: Rhipicephalus sanguineus, 168 h, at 100 ppm, adult ticks, 28° C. and 80% relative humidity for 7 days, read-out: efficacy (EC80)
Protocol: Activity In Vitro Against Rhipicephalus sanguineus (Dog Tick)—Assay A
A contact test is performed by pre-coating microplate with serial dilution of compound allowing evaluating anti-parasitic activity by contact against ticks. A mixed adult tick population is then distributed to each well of the plate and incubated at 28° C. and 80% relative humidity for 7 days, during which the effect of the test compound is monitored. Acaricidal activity is confirmed if and when adult ticks are dead.

[7] = system: Lice (Polyplax serrata); experiment: Activity in vivo against lice (Polyplax serrata) in mice (topical); settings: pour-on application, live lice on day +4 and +14, Henderson & Tilton formula, read-out: efficacy (EC90)
Protocol: Activity In Vivo Against Lice (Polyplax serrata) in Mice (Topical) Mice naturally infected with P. serrata are treated with the formulated test compound on day 0 by pour-on application. On day +4 and +14, efficacy is evaluated by counting the number of live lice under a binocular. Efficacy at the two time points is expressed as a comparison of lice numbers counted on the same mouse before treatment, using the Henderson & Tilton formula, taking also into account lice numbers found on mice treated with the empty formulation (placebo group): [formula] n=number of lice, T=treated group, Co=control/placebo group.

CC(c1ncnn1-c1ncccn1)N(C)C(=O)c1cccc(C(N)=S)c1 (centres unmarked) [Example 71, 3-Carbamothioyl-N-methyl-N-[1-(2-pyrimidin-2-yl-1,2,4-triazol-3-yl)ethyl]benzamide] was tested, and the pest or weed control at 10 ppm [1] was over 50%.

C[C@@H](c1ncnn1-c1ncccn1)N(CC1CC1)C(=O)c1cncc(C(F)(F)F)c1 [Example 45, N-(Cyclopropylmethyl)-N-[(1S)-1-(2-pyrimidin-2-yl-1,2,4-triazol-3-yl)ethyl]-5-(trifluoromethyl)pyridine-3-carboxamide] gave a pest or weed control at 100 ppm [2] of over 80%, a pest or weed control at 32 ppm [3] of over 80% and a pest or weed control at 200 ppm [4] of over 80%. It also gave an inhibition in vivo at 32 mg/kg [5] of over 90%.

Compound CC(NC(=O)c1cccc(C#N)c1)c1ncnn1-c1ncccn1 (centres unmarked) [Example 52, 3-Cyano-N-[1-(2-pyrimidin-2-yl-1,2,4-triazol-3-yl)ethyl]benzamide] has a pest or weed control at 10 ppm [1] of over 50%.

Compound CC(c1ncnn1-c1ncccn1)N(CCCF)C(=O)c1cc(Cl)cc(C(F)(F)F)c1 (centres unmarked) [Example 24, 3-Chloro-N-(3-fluoropropyl)-N-[1-(2-pyrimidin-2-yl-1,2,4-triazol-3-yl)ethyl]-5-(trifluoromethyl)benzamide] has a pest or weed control at 100 ppm [2] of over 80%, a pest or weed control at 100 ppm [6] of over 80% and a pest or weed control at 32 ppm [3] of over 80%. It also gave a pest or weed control at 200 ppm [4] of over 80% and an inhibition in vivo at 32 mg/kg [7] of over 90%.

Work on C[C@@H](c1ncnn1-c1ccccn1)N(CC1CC1)C(=O)c1cc(C(F)(F)F)cc(C(F)(F)F)c1 [Example 44, N-(Cyclopropylmethyl)-N-[(1S)-1-[2-(2-pyridyl)-1,2,4-triazol-3-yl]ethyl]-3,5-bis(trifluoromethyl)benzamide] yielded a pest or weed control at 100 ppm [2] of over 80%, a pest or weed control at 32 ppm [3] of over 80% and a pest or weed control at 200 ppm [4] of over 80%. The inhibition in vivo at 32 mg/kg [5] was over 90%.

With CC(c1ncnn1-c1ncccn1)N(CCC(F)(F)F)C(=O)c1cc(Cl)cc(C(F)(F)F)c1 (centres unmarked) [Example 26, 3-Chloro-N-[1-(2-pyrimidin-2-yl-1,2,4-triazol-3-yl)ethyl]-5-(trifluoromethyl)-N-(3,3,3-trifluoropropyl)benzamide] the pest or weed control at 100 ppm [2] was over 80%, the pest or weed control at 100 ppm [6] was over 80% and the pest or weed control at 32 ppm [3] was over 80%. For the same compound, the inhibition in vivo at 32 mg/kg [5] was over 90%.

For CC(c1ncnn1-c1ncccn1)N(CCF)C(=O)c1cc(Cl)cc(C(F)(F)F)c1 (centres unmarked) [Example 23, 3-Chloro-N-(2-fluoroethyl)-N-[1-(2-pyrimidin-2-yl-1,2,4-triazol-3-yl)ethyl]-5-(trifluoromethyl)benzamide], the pest or weed control at 32 ppm [3] was over 80%, the pest or weed control at 200 ppm [4] was over 80% and the inhibition in vivo at 32 mg/kg [5] was over 90%.

In the case of CC(c1ncnn1-c1ncccn1)N(CCC(F)(F)F)C(=O)c1cncc(C(F)(F)F)c1 (centres unmarked) [Example 29, N-[1-(2-Pyrimidin-2-yl-1,2,4-triazol-3-yl)ethyl]-5-(trifluoromethyl)-N-(3,3,3-trifluoropropyl)pyridine-3-carboxamide], the pest or weed control at 100 ppm [2] was over 80%, the pest or weed control at 100 ppm [6] was over 80% and the pest or weed control at 32 ppm [3] was over 80%. It also gave an inhibition in vivo at 32 mg/kg [5] of over 90%.

With CC(c1ncnn1-c1ncccn1)N(CC1CC1)C(=O)c1cccc(C#N)c1 (centres unmarked) [Example 38, 3-Cyano-N-(cyclopropylmethyl)-N-[1-(2-pyrimidin-2-yl-1,2,4-triazol-3-yl)ethyl]benzamide] the pest or weed control at 100 ppm [2] was over 80%, the pest or weed control at 100 ppm [6] was over 80% and the pest or weed control at 32 ppm [3] was over 80%. It also gave a pest or weed control at 200 ppm [4] of over 80% and an inhibition in vivo at 32 mg/kg [7] of over 90%.

In the case of CC(c1ncnn1-c1ncccn1)N(CCCF)C(=O)c1cncc(C(F)(F)F)c1 (centres unmarked) [Example 31, N-(3-Fluoropropyl)-N-[1-(2-pyrimidin-2-yl-1,2,4-triazol-3-yl)ethyl]-5-(trifluoromethyl)pyridine-3-carboxamide], the pest or weed control at 100 ppm [2] was over 80%, the pest or weed control at 100 ppm [6] was over 80% and the pest or weed control at 32 ppm [3] was over 80%. For the same compound, the inhibition in vivo at 32 mg/kg [5] was over 90%.
